Assay results reported in DBAASP.
≈ marks a conversion by molar mass, not a printed value.

What was measured:
Assay in all cases: ≥ marks a high value that may be exact or a test limit, other limits are often not marked, values filed in µg/mL are converted to µM
[1] = tested on: Escherichia coli ATCC 25922
[2] = tested on: Staphylococcus aureus ATCC 29213
[3] = tested on: Staphylococcus aureus
[4] = tested on: Staphylococcus epidermidis ATCC 12228
[5] = tested on: Escherichia coli
[6] = tested on: Bacillus subtilis
[7] = tested on: Pseudomonas aeruginosa

CC[C@H](C)[C@H](NC(=O)[C@H](CCCN=C(N)N)NC(=O)[C@H](CCCCN)NC(=O)[C@@H](N)Cc1ccccc1)C(=O)NCC(=O)N[C@@H](CCC(N)=O)C(=O)N[C@@H](CCCN=C(N)N)C(=O)N[C@H](C(=O)N[C@@H](CCCCN)C(=O)N[C@@H](CC(=O)O)C(=O)N[C@@H](Cc1ccccc1)C(=O)N[C@@H](CC(C)C)C(=O)N[C@@H](CCCN=C(N)N)C(=O)O)[C@@H](C)CC [FKRIGQRIKDFLR]
MIC [1]: 5 µM (≈ 8.39 µg/mL) | MIC [2]: > 40 µM

CC[C@H](C)[C@H](NC(=O)[C@H](CCCN=C(N)N)NC(=O)[C@H](CCCCN)NC(=O)[C@@H](N)Cc1ccccc1)C(=O)N[C@H](C(=O)N[C@@H](CCC(N)=O)C(=O)N[C@@H](CCCN=C(N)N)C(=O)N[C@@H](C)C(=O)N[C@@H](CCCCN)C(=O)N[C@@H](CC(=O)O)C(=O)N[C@@H](Cc1ccccc1)C(=O)N[C@@H](CC(C)C)C(=O)N[C@@H](CCCN=C(N)N)C(=O)O)C(C)C [FKRIVQRAKDFLR]
MIC [1]: 10 µM (≈ 16.8 µg/mL) | MIC [2]: > 40 µM

CC[C@H](C)[C@H](NC(=O)[C@H](CCCN=C(N)N)NC(=O)[C@H](CCC(N)=O)NC(=O)[C@@H](NC(=O)[C@H](CC(N)=O)NC(=O)[C@H](CCCN=C(N)N)NC(=O)[C@H](CCCCN)NC(=O)[C@@H](N)Cc1ccccc1)C(C)C)C(=O)N[C@@H](CCCCN)C(=O)N[C@@H](CC(=O)O)C(=O)N[C@@H](Cc1ccccc1)C(=O)N[C@@H](CC(C)C)C(=O)N[C@@H](CCCN=C(N)N)C(=O)O [FKRNVQRIKDFLR]
MIC [1]: 20 µM (≈ 34.4 µg/mL) | MIC [2]: > 40 µM

CC[C@H](C)[C@H](NC(=O)[C@H](Cc1ccccc1)NC(=O)[C@@H]1CCCN1C(=O)[C@H](CC(C)C)NC(=O)[C@@H](N)Cc1ccccc1)C(=O)N[C@@H](C)C(=O)N[C@@H](CCCN=C(N)N)C(=O)N[C@@H](CC(C)C)C(=O)N[C@@H](C)C(=O)N[C@@H](C)C(=O)N[C@@H](CCCCN)C(=O)N[C@H](C(=O)N[C@@H](Cc1ccccc1)C(=O)N1CCC[C@H]1C(=O)N[C@@H](CO)C(=O)N[C@H](C(=O)N[C@H](C(=O)N[C@H]1CSSC[C@@H](C(=O)O)NC(=O)[C@H](CCCCN)NC(=O)[C@H](CCCCN)NC(=O)[C@H]([C@@H](C)O)NC(=O)[C@H](C(C)C)NC(=O)[C@H](CO)NC1=O)[C@@H](C)CC)[C@@H](C)CC)C(C)C [FLPFIARLAAKVFPSIICSVTKKC]
MIC [1]: 1.51 µM (≈ 4 µg/mL) | MIC [2]: 0.533 µM (≈ 1.41 µg/mL) | MIC [3]: 55 µM (≈ 146 µg/mL)

CC[C@H](C)[C@H](NC(=O)CN)C(=O)N[C@@H](CCCCN)C(=O)N[C@@H](CCCCN)C(=O)N[C@@H](Cc1c[nH]c2ccccc12)C(=O)N[C@@H](CC(C)C)C(=O)N[C@@H](Cc1cnc[nH]1)C(=O)N[C@@H](CCCCN)C(=O)N1CCC[C@H]1C(=O)N[C@@H](CCCCN)C(=O)N[C@@H](CCCCN)C(=O)N[C@@H](Cc1ccccc1)C(=O)N1CCC[C@H]1C(=O)N[C@@H](CCCCN)C(=O)N[C@@H](CCCCN)C(=O)N[C@@H](Cc1ccccc1)C(=O)N[C@H](C(=O)N[C@@H](CCCCN)C(=O)N[C@@H](CCCCN)C(=O)N[C@H](C(=O)N[C@@H](CCSC)C(=O)N[C@@H](CC(N)=O)C(=O)N[C@@H](CO)C(N)=O)[C@@H](C)CC)C(C)C [GIKKWLHKPKKFPKKFVKKIMNS]
MIC [1]: 10 µM (≈ 28.1 µg/mL) | MIC [4]: 1.25 µM (≈ 3.51 µg/mL)

CC[C@H](C)[C@H](NC(=O)[C@H](Cc1ccccc1)NC(=O)CNC(=O)[C@H](CCCCN)NC(=O)[C@H](C)NC(=O)[C@H](Cc1ccccc1)NC(=O)[C@H](CCCCN)NC(=O)[C@H](CCCCN)NC(=O)[C@@H](NC(=O)[C@H](CO)NC(=O)[C@H](Cc1cnc[nH]1)NC(=O)[C@H](CC(C)C)NC(=O)[C@@H](NC(=O)[C@H](CCC(=O)O)NC(=O)[C@H](CCCCN)NC(=O)[C@H](CC(C)C)NC(=O)CN)C(C)C)[C@@H](C)O)C(=O)N[C@H](C(=O)NCC(=O)N[C@@H](CC(C)C)C(=O)N[C@H](C(=O)NCC(=O)N[C@@H](CCC(N)=O)C(=O)O)[C@@H](C)O)[C@@H](C)O [GLKEVLHSTKKFAKGFITGLTGQ]
MIC [5]: > 160 µM | MIC [3]: > 160 µM

CC[C@H](C)[C@H](NC(=O)[C@@H](NC(=O)[C@@H](NC(=O)[C@H](Cc1c[nH]c2ccccc12)NC(=O)[C@@H](NC(=O)CN)C(C)C)[C@@H](C)O)[C@@H](C)O)C(=O)N[C@@H](CC(C)C)C(=O)NCC(=O)NCC(=O)N[C@@H](CC(C)C)C(=O)N[C@@H](CCCCN)C(=O)N[C@@H](CCCCN)C(=O)N[C@@H](Cc1ccccc1)C(=O)N[C@@H](C)C(=O)N[C@@H](CCCCN)C(=O)NCC(=O)NCC(=O)N[C@@H](CC(C)C)C(=O)N[C@@H](CCC(=O)O)C(=O)N[C@@H](C)C(=O)N[C@@H](CC(C)C)C(=O)N[C@H](C(=O)N[C@@H](CC(N)=O)C(=O)N1CCC[C@H]1C(=O)N[C@@H](CCCCN)C(=O)O)[C@@H](C)O [GVWTTILGGLKKFAKGGLEALTNPK]
MIC [5]: 40 µM (≈ 104 µg/mL) | MIC [3]: 80 µM (≈ 208 µg/mL)

CC[C@H](C)[C@H](N)C(=O)N[C@@H](CC(N)=O)C(=O)N[C@@H](Cc1c[nH]c2ccccc12)C(=O)N[C@@H](CCCCN)C(=O)N[C@@H](CCCCN)C(=O)N[C@H](C(=O)N[C@@H](C)C(=O)N[C@@H](CO)C(=O)N[C@H](C(=O)NCC(=O)N[C@@H](CCCCN)C(=O)N[C@@H](CCC(=O)O)C(=O)N[C@H](C(=O)N[C@@H](CC(C)C)C(=O)N[C@@H](CCCCN)C(N)=O)C(C)C)[C@@H](C)CC)[C@@H](C)CC [INWKKIASIGKEVLK]
MIC [5]: 100 µM (≈ 173 µg/mL) | MIC [6]: ≥ 100 µM

CC[C@H](C)[C@H](N)C(=O)N[C@@H](CC(N)=O)C(=O)N[C@@H](Cc1c[nH]c2ccccc12)C(=O)N[C@@H](CCCCN)C(=O)N[C@@H](CCCCN)C(=O)N[C@H](C(=O)N[C@@H](Cc1ccccc1)C(=O)N[C@@H](CCC(=O)O)C(=O)N[C@@H](CO)C(=O)N[C@H](C(=O)N[C@@H](CCCCN)C(=O)N[C@@H](CC(N)=O)C(=O)N[C@@H](CC(C)C)C(=O)N[C@H](C(N)=O)C(C)C)C(C)C)[C@@H](C)CC [INWKKIFESVKNLV]
MIC [5]: 10 µM (≈ 17.2 µg/mL) | MIC [6]: 10 µM (≈ 17.2 µg/mL)

CC[C@H](C)[C@H](N)C(=O)N[C@@H](CC(N)=O)C(=O)N[C@@H](Cc1c[nH]c2ccccc12)C(=O)N[C@@H](CCCCN)C(=O)N[C@@H](CO)C(=O)N[C@H](C(=O)N[C@@H](Cc1ccccc1)C(=O)N[C@@H](CCC(=O)O)C(=O)N[C@@H](CCCCN)C(=O)N[C@H](C(=O)N[C@@H](CCCCN)C(=O)N[C@@H](CC(N)=O)C(=O)N[C@@H](CC(C)C)C(=O)N[C@H](C(N)=O)C(C)C)C(C)C)[C@@H](C)CC [INWKSIFEKVKNLV]
MIC [5]: 15 µM (≈ 25.8 µg/mL) | MIC [6]: 15 µM (≈ 25.8 µg/mL)

CC[C@H](C)[C@H](N)C(=O)N[C@@H](CC(N)=O)C(=O)N[C@@H](Cc1c[nH]c2ccccc12)C(=O)N[C@@H](CC(C)C)C(=O)N[C@@H](CCCN=C(N)N)C(=O)N[C@@H](CC(C)C)C(=O)NCC(=O)N[C@@H](CCCN=C(N)N)C(=O)N[C@@H](CCCN=C(N)N)C(=O)N[C@H](C(=O)N[C@@H](CC(C)C)C(=O)NCC(=O)N[C@@H](C)C(=O)N[C@@H](CC(C)C)C(N)=O)[C@@H](C)CC [INWLRLGRRILGAL]
MIC [5]: > 100 µM | MIC [6]: 17.5 µM (≈ 28.9 µg/mL)

CC[C@H](C)[C@H](NC(=O)[C@H](C)NC(=O)[C@H](CCCCN)NC(=O)[C@H](C)NC(=O)[C@@H](NC(=O)[C@H](CO)NC(=O)[C@H](CCCCN)NC(=O)[C@@H](NC(=O)[C@H](Cc1c[nH]c2ccccc12)NC(=O)[C@H](CCCCN)NC(=O)[C@H](CC(C)C)NC(=O)[C@@H](NC(=O)[C@H](CO)NC(=O)[C@H](CCCCN)NC(=O)[C@H](C)NC(=O)[C@@H](NC(=O)[C@H](C)NC(=O)[C@@H](N)CCCCN)[C@@H](C)CC)[C@@H](C)CC)[C@@H](C)CC)[C@@H](C)CC)C(N)=O [KAIAKSILKWIKSIAKAI]
MIC [7]: 11.2 µM (≈ 22.2 µg/mL) | MIC [5]: 5.6 µM (≈ 11.1 µg/mL) | MIC [3]: 1.4 µM (≈ 2.77 µg/mL)

CC(C)C[C@H](NC(=O)CNC(=O)[C@H](C)NC(=O)[C@H](CCCCN)NC(=O)[C@H](CC(C)C)NC(=O)[C@H](CCCCN)NC(=O)[C@H](C)NC(=O)[C@H](CC(C)C)NC(=O)CNC(=O)[C@H](C)NC(=O)[C@H](CCCCN)NC(=O)[C@H](Cc1c[nH]c2ccccc12)NC(=O)[C@H](CCCCN)NC(=O)[C@H](C)NC(=O)[C@H](CC(C)C)NC(=O)CNC(=O)[C@H](C)NC(=O)[C@H](CCCCN)NC(=O)[C@H](CC(C)C)NC(=O)[C@@H](N)CCCCN)C(=O)N[C@@H](C)C(N)=O [KLKAGLAKWKAGLAKLKAGLA]
MIC [7]: > 120 µM | MIC [5]: 15 µM (≈ 32 µg/mL) | MIC [3]: 120 µM (≈ 256 µg/mL)

CC(=O)N[C@@H](CC(C)C)C(=O)N[C@@H](CCCCN)C(=O)N[C@@H](CCCCN)C(=O)N[C@@H](CC(C)C)C(=O)N1CCC[C@H]1C(=O)N[C@@H](CCCCN)C(=O)N[C@@H](CC(C)C)C(=O)N[C@@H](CO)C(=O)N[C@@H](CCCCN)C(=O)N[C@@H](CCCCN)C(=O)N[C@@H](CC(C)C)C(=O)N[C@@H](CC(C)C)C(=O)N[C@@H](CCCCN)C(=O)N[C@@H](CC(C)C)C(N)=O [LKKLPKLSKKLLKL]
MIC [1]: 3.54 µM (≈ 5.98 µg/mL) | MIC [2]: 14.1 µM (≈ 23.9 µg/mL)

CC[C@H](C)[C@H](NC(=O)[C@@H](NC(=O)[C@H](C)NC(=O)[C@H](CCCN=C(N)N)NC(=O)[C@H](CC(N)=O)NC(=O)[C@H](Cc1ccccc1)NC(=O)[C@H](CO)NC(=O)[C@@H](NC(=O)[C@H](CCCN=C(N)N)NC(=O)[C@H](CCCN=C(N)N)NC(=O)[C@H](CCCN=C(N)N)NC(=O)[C@H](CC(C)C)NC(=O)[C@H](CCC(=O)O)NC(=O)[C@H](CC(N)=O)NC(=O)[C@H](CCC(=O)O)NC(=O)[C@H](CCC(=O)O)NC(=O)[C@H](CC(N)=O)NC(=O)[C@@H](N)CC(N)=O)C(C)C)C(C)C)C(=O)N[C@@H](Cc1cnc[nH]1)C(=O)N[C@@H](CO)C(=O)N[C@@H](CC(C)C)C(=O)N[C@@H](CC(C)C)C(=O)NCC(N)=O [NNEENELRRRVSFNRAVIHSLLG]
MIC [1]: > 257 µM | MIC [2]: > 257 µM

CC(C)C[C@H](NC(=O)[C@H](Cc1ccccc1)NC(=O)[C@@H]1CCCN1C(=O)[C@H](Cc1c[nH]c2ccccc12)NC(=O)[C@H](Cc1c[nH]c2ccccc12)NC(=O)[C@H](Cc1c[nH]c2ccccc12)NC(=O)[C@H](C)NC(=O)[C@H](Cc1ccccc1)NC(=O)[C@H](CCCN=C(N)N)NC(=O)[C@H](CCCN=C(N)N)NC(=O)[C@@H](N)C(C)C)C(=O)N[C@@H](CCCN=C(N)N)C(=O)N[C@@H](CCCN=C(N)N)C(N)=O [VRRFAWWWPFLRR]
MIC [1]: 8 µM (≈ 15 µg/mL) | MIC [5]: 10.7 µM (≈ 20 µg/mL) | MIC [3]: 2.13 µM (≈ 4 µg/mL)
